Test results published in patent US12428405B2, “Chalcone-based chemotherapeutic compound for triple negative breast cancer” (QATAR UNIVERSITY, priority 2019, dated 2025).
“Also recorded” adds a separate entry of the source.

Experiments:
[1] = tested on: Chorioallantoic membrane (CAM) of the chicken embryos; test: Chorioallantoic membrane (CAM) angiogenesis assay; type: in vivo; conditions: treated at embryonic day 4, read at day 8; 2 μl of 5 mM stock under coverslip
Protocol: Fertilized white Leghorn chicken embryos (Arab Qatari for Poultry Production, Qatar) were purchased and incubated at 60% humidity at 37° C. in MultiQuip incubator. Ethics approval was obtained from Qatar University-Institutional Bio-safety committee. The embryos were treated in ovo at embryonic day 4 with three of the synthesized chalcones (5, 13 and 14) compared to DMSO treated controls. Briefly, a small cut was made at the top of the shells of the eggs and each treatment was added under a round coverslip at 2 μl of 5 mM stock solutions. Microscopic pictures were taken at embryonic day 8. Embryos treated with compounds 13 and 14 were sacrificed at embryonic day 9 for clinical observations. Quantification of blood vessels was performed manually and the different treatment groups were compared.

MCF-7 [2] = test: MTT cell viability; type: cell-based; conditions: for IC50: Homo sapiens, MCF7, 48 hours of treatment, Mean ± SEM (n = 3 × 3); for SI of HNME/MCF-7 (selective index): ratio of LD50 on HNME-E6/E7 to IC50 on MCF-7
From the text: (§1) Breast cancer cell lines including MDA-MB-231, MDA-MB-468, MCF-7, BT-474 and SK-BR-3 were obtained from the American Type Tissue Culture (ATCC) and maintained in complete cell culture media Gibco® RPMI 1640 (Thermo Fisher Scientific, USA) supplemented with 10% fetal bovine serum (PAN-Biotech, Aidenbach, Bavaria, Germany) and 1% penicillin/streptomycin (1×) antibiotics (Thermo Fisher Scientific, USA). Human normal mammary epithelial cells immortalized by E6/E7 of HPV type 16 (HNME-E6/E7) were used to predict potential safety of the compounds (125, 126). They were maintained in Gibco® Keratinocyte-SFM (1×) media. All cells were incubated in 5% CO2 at 37° C. incubator. Cells were maintained by routine sub-culturing in T-75 and T25 filtered tissue culture flasks.
(§2) MDA-MB-231, MDA-MB-468, MCF-7, BT-474 and HNME-E6/E7 cells were seeded overnight in 96-well plates at a concentration of 8000-10,000/well depending on their pre-calculated cell density and were incubated overnight. At 24 hours, media was replaced with fresh one. The treatment wells included 6-8 different concentrations of the compounds ranging between 0.25 μM-160 μM. At 48 hours post treatment, 10 μL MTT solution was added to each well followed by 4 hours of incubation. Afterwards, media with MTT was removed from all wells and 50 μl DMSO was added to each well to dissolve the crystals. This was followed by 5 minutes incubation. Absorbance was recorded at a wavelength of 562 nm after 3 minutes of shaking using Infinite 200 PRO Microplate Reader (Tecan, Switzerland). Percentage of viable cells was calculated using the following formula: […]

MDA-MB-468 [3] = test: MTT cell viability; type: cell-based; conditions: for IC50: Homo sapiens, MDA-MB-468, 48 hours of treatment, Mean ± SEM (n = 3 × 3); for SI of HNME/MDA-468 (selective index): ratio of LD50 on HNME-E6/E7 to IC50 on MDA-MB-468
From the text: as §1, §2

MDA-MB-231 [4] = test: MTT cell viability; type: cell-based; conditions: for IC50: Homo sapiens, MDA-MB-231, 48 hours of treatment, Mean ± SEM (n = 3 × 3); for SI of HNME/MDA-231 (selective index): ratio of LD50 on HNME-E6/E7 to IC50 on MDA-MB-231
From the text: as §1, §2

HNME-E6/E7 = test: Morphological examination of normal cells; type: cell-based, human; conditions: 5 μM; 48 hours
Protocol: (§3) MCF-7, MDA-MB-231, MDA-MB-468 and HNME-E6/E7 cells were seeded in a 6-well plates at a concentration of 200,000-300,000 cells/well and were incubated overnight. After incubation, cells were treated with different compounds.

MCF-7 [5] = test: Soft agar colony formation assay; type: cell-based; conditions: for less colonies as compared to untreated: 5 and 10 μM, 14 days post treatment; for colony formation (in words): MCF-7, soft agar
MCF-7 [6] = test: Matrigel invasion assay; type: cell-based; conditions: 24 hours; 13 (10 μM), 14 (5 μM)
Protocol: (§4) Matrigel-coated invasion chamber plates (CORNING, USA) were used to study the invasive property of MDA-MB-231, MDA-MB-468 and MCF-7 cancer cells. Cells were seeded at a concentration of 5×10^4 cells/0.5 ml in each upper chamber well and maintained in RPMI serum free medium. Complete RPMI medium with 10% FBS was added to each base well at 600 μl/well to act as an attractant to the cells in the upper chamber. After 24 hours, cells were fixed using a 3.70% formaldehyde as a fixator for 5 minutes. […] Thereafter, cells were stained using 5% crystal violet dissolved in ethanol and were incubated for 5 minutes followed by several rounds of washing with PBS. Cells were then visualized under the microscope and 4 pictures/well were taken from different zones. ImageJ software was used to quantify the number of invaded cells in each well.

MDA-MB-468 [7] = test: Matrigel invasion assay; type: cell-based; conditions: 24 hours; 13 (10 μM), 14 (5 μM)
Protocol: as §4

MDA-MB-231 [8] = test: Matrigel invasion assay; type: cell-based; conditions: 24 hours; 13 (10 μM), 14 (5 μM)
Protocol: as §4

MCF-7 [9] = test: Morphological examination; type: cell-based; conditions: 10 μM; 48 hours
Protocol: as §3

MDA-MB-468 [10] = test: Morphological examination; type: cell-based; conditions: 10 μM; 24 hours
Protocol: as §3

MDA-MB-231 [11] = test: Morphological examination; type: cell-based; conditions: 10 μM
Protocol: as §3

MDA-MB-231 [12] = test: Soft agar colony formation assay; type: cell-based; conditions: for less colonies as compared to untreated: 5 and 10 μM, 21 days post treatment; for colony formation (in words): MDA-MB-231, soft agar
[13] = tested on: TNBC (MDA-MB-231 and MDA-MB-231) and estrogen positive (MCF-7 and BT-474) cell lines; test: MTT cell viability, breast cancer cell line panel (summary statements); type: cell-based
From the text: as §1
as §2, with “At 48 hours post treatment, 10 μL MTT solution was added to each well followed by 4 hours of incubation. Afterwards, media with MTT was removed from all wells and 50 μl DMSO was added to each well to dissolve the crystals. This was followed by 5 minutes incubation.” left out

MDA-MB-468 [14] = test: Soft agar colony formation assay; type: cell-based; conditions: for less colonies as compared to untreated: 5 and 10 μM, 14 days post treatment

| Structure (SMILES) | inhibition of blood vessels development vs control [1] | IC50 (MCF-7 [2]) | SI of HNME/MCF-7 (selective index) (MCF-7 [2]) | IC50 (MDA-MB-468 [3]) | SI of HNME/MDA-468 (selective index) (MDA-MB-468 [3]) | IC50 (MDA-MB-231 [4]) | SI of HNME/MDA-231 (selective index) (MDA-MB-231 [4]) | cell morphology of normal cells (HNME-E6/E7) | less colonies as compared to untreated (MCF-7 [5]) | colony formation (in words) (MCF-7 [5]) | reduction of cancer cells invasion vs DMSO control (MCF-7 [6]) | reduction of cancer cells invasion vs DMSO control (MDA-MB-468 [7]) | reduction of cancer cells invasion vs DMSO control (MDA-MB-231 [8]) | cell morphology (MCF-7 [9]) | cell morphology (MDA-MB-468 [10]) | cell morphology (MDA-MB-231 [11]; 24 hours) | cell morphology (MDA-MB-231 [11]; 48 hours) | less colonies as compared to untreated (MDA-MB-231 [12]) | colony formation (in words) (MDA-MB-231 [12]) | less colonies as compared to untreated (MDA-MB-468 [14]) | other results |
| --- | --- | --- | --- | --- | --- | --- | --- | --- | --- | --- | --- | --- | --- | --- | --- | --- | --- | --- | --- | --- | --- |
| COc1cccc(C(=O)/C=C/c2ccc(N(CCCl)CCCl)cc2)c1 [Compound 14, (E)-3-(4-(Bis(2-chloroethyl)amino)phenyl)-1-(3-methoxyphenyl) prop-2-en-1-one] | 60.20±8.47% | 3.96 ± 1.87 µM | 5.22 | 8.73 ± 0.67 µM | 2.36 | 6.3 ± 0.78 µM | 3.2 | induced morphological changes | ~100% | completely inhibited; also recorded: better effects on MCF-7 as compared to colchicine | 57.26% | 59.28% | 82.54% | induced cell shrinkage | obvious change in cell shape | did not induce a significant difference | change in cell shape | ~100% | completely inhibited; also recorded: better effects on MDA-MB-231 as compared to colchicine and paclitaxel | ~100% | IC50 ([13]; TNBC and estrogen positive cell lines, read-out: anti-proliferative IC50 values, range over cell lines): 3.94 to 9.22 µM; colony formation (in words) (MDA-MB-468 [14]; MDA-MB-468, soft agar): completely inhibited |
| CS(=O)(=O)c1ccc(C(=O)/C=C/c2ccc(N(CCCl)CCCl)cc2)cc1 [Compound 13, (E)-3-(4-(Bis(2-chloroethyl)amino)phenyl)-1-(4-(methylsulfonyl)phenyl) prop-2-en-1-one] | 55.6±6.04% | 8.95 ± 1.46 µM | 3.61 | 9.29 ± 0.68 µM | 3.48 | 9.67 ± 0.68 µM | 3.34 | induced morphological changes | ~100% | better effects on MCF-7 as compared to colchicine | 45.70% | 48.45% | 79.57% | triggered cells to become larger in shape | obvious change in cell shape | look more spherical in shape and to lose their mesenchymal fibroblastic property | Mainly single circular cells were obvious | ~100% | better effects on MDA-MB-231 as compared to colchicine and paclitaxel | ~100% | selectivity, approximately similar between different breast cancer cell lines ([13]; versus HNME-E6/E7 normal cells): ~3 |
